The record followed here is patent US20250382272A1, “CRYSTALLINE FORM OF INDAZIFLAM, METHODS FOR ITS PREPARATION AND USE THEREOF” (ADAMA AGAN LTD., priority 2022, published 2025).

This series can be described thus: Bulk and tapped density, compressibility index (USP <1174> Powder Flow) of indaziflam crystal samples. The settings on record: for Tap density: cylinder manually tapped (dropped) 50 times, ~1 second between taps; for Bulk Density: sample poured into tared cylinder to 250 ml mark and weighed; for flowability: judged from compressibility index as explained in US Pharmacopoeia method <1174> Powder Flow. In kind it is physicochemical. How it is done:
For purposes of sufficiency of disclosure, the “compressibility index” means in the present invention the compressibility index measured according to US Pharmacopoeia method <1174> Powder Flow, revision from 20 Jan. 2023.
Bulk and tapped density measurements are obtained by placing a sample onto a glazed paper. Then, the sample is poured into the tared cylinder until 250 ml mark is reached. The amount of sample is weighed. Rubber bung is fitted into the cylinder. Cylinder is placed in the dropping box and manually tapped (dropped) 50 times with ˜1 second time difference between taps. Compressibility index is calculated from the bulk density and the tapped density as explained in US Pharmacopoeia method <1174> Powder Flow, revision from 20 Jan. 2023.

The structures appear in SMILES notation.

For the molecule `Cc1ccc2c(c1)[C@H](Nc1nc(N)nc([C@@H](C)F)n1)[C@@H](C)C2` [Example 1, N-[(1R,2S)-2,6-dimethyl-2,3-dihydro-1H-inden-yl]-6-[(1R)-1-fluoroethyl]-1,3-5-triazine-2,4-diamine], the Tap density came to 0.65 gr/ml and the “Bulk Density” value was found to be 0.56 gr/ml.

As to `Cc1ccc2c(c1)[C@H](Nc1nc(N)nc([C@@H](C)F)n1)[C@@H](C)C2` [Comparative Example 3, N-[(1R,2S)-2,6-dimethyl-2,3-dihydro-1H-inden-yl]-6-[(1R)-1-fluoroethyl]-1,3-5-triazine-2,4-diamine, reference compound], the Tap density came out at 0.59 gr/ml, the flowability entry is “not good” and the “Bulk Density” value was found to be 0.48 gr/ml.

Regarding `Cc1ccc2c(c1)[C@H](Nc1nc(N)nc([C@@H](C)F)n1)[C@@H](C)C2` [Example 2, N-[(1R,2S)-2,6-dimethyl-2,3-dihydro-1H-inden-yl]-6-[(1R)-1-fluoroethyl]-1,3-5-triazine-2,4-diamine], the Tap density worked out at 0.52 gr/ml, the flowability result is “good flowability” and the “Bulk Density” value worked out at 0.47 gr/ml.
